Among the data in patent publication US11124518B2, “L,2-dihydro-3H-pyrazolo[3,4-D]pyrimidin-3-one analogs” (Recurium IP Holdings, LLC, priority 2017, dated 2021) are IC50 values, retold here.

The structures appear in SMILES notation. Counter-ions that a name gives are not always drawn.

The test system of one test is H23 cells. Put plainly: H23 Cellular Proliferation Assay (CellTiter-Glo). The settings on record: Homo sapiens, NCI-H23, 96 h, 4 days. It is filed as cell-based. Here is the method:
Cells were treated with compounds diluted in DMSO and a 9 point 5-fold serial dilutions. Plates were placed in 37° C., 5% CO2 to incubate for 4 days. Before they were developed by adding 100 μL of CellTiter-Glo reagent (Promega) to the assay plate, plates were shaken briefly for 2 mins and allowed to incubate at RT for 10 mins. The plates are read with a M5e plate reader according to CellTiter-Glo protocol. The GraphPad Prism software was used to get IC50 values. The bottom of the plates was pasted with white back seal and luminescence was recorded with Enspire or Envision.

Another test addresses Wee1 kinase (Homo sapiens (Human), UniProt P30291). Put plainly: Wee1 Binding Assay (FRET). The settings on record: Wee1 kinase 2 nM, tracer 178 50 nM, 60 min at RT, read-out: Wee1 Enzymatic IC50. The protocol:
Wee 1 kinase was determined by using Flurorescence Resonance Energy Transfer (FRET) assay. […] The plate was shaken for 30 seconds, incubated for 60 min at RT, and recorded on fluorescence plate reader.

The test system of the next test is SW480 cells. Put plainly: SW480 Cellular Proliferation Assay (CellTiter-Glo). The settings on record: Homo sapiens, 96 h, 4 days. It is filed as cell-based. The protocol: Cells were treated with compounds diluted in DMSO and a 10 point 3-fold serial dilutions. Plates were placed in 37° C., 5% CO2 for to incubate for 4 days. Before they were developed by adding 100 μL of CellTiter-Glo reagent (Promega) to the assay plate, plates were shaken briefly for 2 mins and allowed to incubate at RT for 60 mins. The bottom of the plates was pasted with white back seal and luminescence was recorded with Enspire or Envision.

Sequence of Wee1 kinase (P30291 whole entry): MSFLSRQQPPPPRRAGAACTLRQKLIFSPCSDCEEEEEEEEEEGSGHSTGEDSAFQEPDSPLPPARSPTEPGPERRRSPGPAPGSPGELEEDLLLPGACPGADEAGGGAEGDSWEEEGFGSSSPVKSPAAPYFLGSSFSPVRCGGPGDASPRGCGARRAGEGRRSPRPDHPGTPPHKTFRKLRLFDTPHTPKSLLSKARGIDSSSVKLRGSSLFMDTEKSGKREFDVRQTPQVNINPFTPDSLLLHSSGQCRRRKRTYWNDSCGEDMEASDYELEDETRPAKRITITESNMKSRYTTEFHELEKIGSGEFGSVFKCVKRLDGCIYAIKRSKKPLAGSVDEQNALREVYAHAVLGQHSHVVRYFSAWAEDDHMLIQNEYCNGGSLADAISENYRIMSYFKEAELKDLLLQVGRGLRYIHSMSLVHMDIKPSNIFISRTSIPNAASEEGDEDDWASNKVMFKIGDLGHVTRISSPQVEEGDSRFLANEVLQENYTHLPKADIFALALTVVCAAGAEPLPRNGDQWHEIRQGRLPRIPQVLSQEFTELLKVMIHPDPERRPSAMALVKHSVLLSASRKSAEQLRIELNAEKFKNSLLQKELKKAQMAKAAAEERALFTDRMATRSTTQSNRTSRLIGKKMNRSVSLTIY

As for `C=CCn1c(=O)c2cnc(Nc3ccc4c(c3)CNCC43CC3)nc2n1-c1cccc(C(C)(C)O)n1` [Example 2, 2-Alyl-6-((2′,3′-dihydro-1′H-spiro[cyclopropane-1,4′-isoquinolin]-7′-yl)amino)-1-(6-(2-hydroxypropan-2-yl)pyridin-2-yl)-1,2-dihydro-3H-pyrazolo[3,4-d]pyrimidin-3-one hydrochloride], the 50% inhibitory concentration (IC50) was < 100 nM in the test with H23 cells, < 10 nM at Wee1 kinase and > 1000 nM in the test on SW480 cells.

Regarding `C=CCn1c(=O)c2cnc(Nc3ccc4c(c3)CC(N(C)C)C4)nc2n1-c1cccc(C(C)(C)O)n1` (stereo not drawn) [Example 22, 2-allyl-6-((2-(dimethylamino)-2,3-dihydro-1H-inden-5-yl)amino)-1-(6-(2-hydroxypropan-2-yl)pyridin-2-yl)-1,2-dihydro-3H-pyrazolo[3,4-d]pyrimidin-3-one], the figures for the concentration for half-maximal inhibition (IC50) in the test with H23 cells, on Wee1 kinase and in the test with SW480 cells were 100 to 1000 nM, < 10 nM and > 1000 nM, respectively.

On to `C=CCn1c(=O)c2cnc(Nc3ccc4c(c3)CNCC4)nc2n1-c1cccc(C(C)(C)O)n1` [Example 6, 2-Allyl-1-(6-(2-hydroxypropan-2-yl)pyridin-2-yl)-6-((1,2,3,4-tetrahydroisoquinolin-7-yl)amino)-1,2-dihydro-3H-pyrazolo[3,4-d]pyrimidin-3-one hydrochloride], for which the IC50 in the test on H23 cells was 100 to 1000 nM; on Wee1 kinase, < 10 nM; in the test on SW480 cells it was 100 to 1000 nM.

Regarding `C=CCn1c(=O)c2cnc(Nc3ccc4c(c3)CCN(C)C4)nc2n1-c1cccc(C(C)(C)O)n1` [Example 16, 2-Allyl-1-(6-(2-hydroxypropan-2-yl)pyridin-2-yl)-6-((2-methyl-1,2,3,4-tetrahydroisoquinolin-6-yl)amino)-1,2-dihydro-3H-pyrazolo[3,4-d]pyrimidin-3-one], the half-maximal inhibitory concentration (IC50) is < 100 nM in the test on H23 cells, < 10 nM at Wee1 kinase and > 1000 nM with SW480 cells.

As to `C=CCn1c(=O)c2cnc(Nc3ccc4c(c3)CN(C)CC4)nc2n1-c1cccc(C(C)(C)O)n1` [Example 5, 2-Allyl-1-(6-(2-hydroxypropan-2-yl)pyridin-2-yl)-6-((2-methyl-1,2,3,4-tetrahydroisoquinolin-7-yl)amino)-1,2-dihydro-3H-pyrazolo[3,4-d]pyrimidin-3-one], the results for the IC50 in the test with H23 cells, on Wee1 kinase and with SW480 cells were < 100 nM, < 10 nM and 100 to 1000 nM, respectively.

For the compound `C=CCn1c(=O)c2cnc(Nc3ccc4c(c3)C(=O)N(C)CC4)nc2n1-c1cccc(C(C)(C)O)n1` [Example 20, 7-((2-Allyl-1-(6-(2-hydroxypropan-2-yl)pyridin-2-yl)-3-oxo-2,3-dihydro-H-pyrazolo[3,4-d]pyrimidin-6-yl)amino)-2-methyl-3,4-dihydroisoquinolin-1(2H)-one], the IC50 is 100 to 1000 nM in the test on H23 cells, < 10 nM at Wee1 kinase and 100 to 1000 nM in the test on SW480 cells.

In the case of `C=CCn1c(=O)c2cnc(Nc3ccc4c(c3)CCNC4)nc2n1-c1cccc(C(C)(C)O)n1` [Example 15, 2-Allyl-1-(6-(2-hydroxypropan-2-yl)pyridin-2-yl)-6-((1,2,3,4-tetrahydroisoquinolin-6-yl)amino)-1,2-dihydro-3H-pyrazolo[3,4-d]pyrimidin-3-one hydrogen chloride], the IC50 with H23 cells is 100 to 1000 nM; on Wee1 kinase, < 10 nM; with SW480 cells, > 1000 nM.
